# Entries after “also recorded” stand apart in the source; their conditions may differ.
# Columns and labels:
# [1] = test system: patients with moderate-to-severe AD; assay: Pooled subgroup analysis of two 16-week phase 3 dupilumab monotherapy trials by CsA eligibility / CsA history; format: in vivo, human; conditions: for Patients achieving EASI 75, n (%) / Patients achieving IGA 0-1, n (%) / bacterial conjunctivitis rate / conjunctivitis rate: 16 weeks; for Patients achieving a ≥4-point improvement in peak pruritus NRS, n/N1 (%): baseline NRS ≥4
# Procedure: Pts (N=1379) with moderate-to-severe AD whose disease was not adequately controlled by topical medications or for whom topical treatment is medically inadvisable were randomized to receive subcutaneous injections of placebo (PBO) or dupilumab 300 mg every 2 weeks (q2w) or weekly (qw) for 16 weeks.
# Subset A pts had, on average, more severe disease than subset B pts, as assessed by Eczema Area and Severity Index (EASI; mean baseline±SD EASI score 37.2±14.69 vs 32.0±13.29; nominal p<0.0001).
# [2] = test system: pediatric patients with moderate-to-severe AD (adolescents) or severe AD (children); assay: Phase 2a open-label ascending-dose study of dupilumab in pediatric AD (efficacy and safety); format: in vivo, human; conditions: for patients who achieved IGA 0-1 / peak pruritus NRS improved by / baseline EASI improved by: Week 12; for baseline EASI improved by: after repeated weekly doses; for reduction in EASI score from baseline: week 2
# Procedure: This Example describes a phase 2a, multicenter, open-label, ascending-dose, sequential-cohort study (NCT02407756) which included adolescents (12-17 years) with moderate-to-severe AD and children (6-11 years) with severe AD, uncontrolled by topical medications. Patients received 2 mg/kg or 4 mg/kg single-dose subcutaneous dupilumab with 8 weeks follow-up, followed by 4 weekly 2 mg/kg or 4 mg/kg doses.
# This was conducted as a phase 2a, multicenter, open-label, ascending dose, sequential cohort study investigating the safety, tolerability, pharmacokinetics (PK), immunogenicity, and efficacy of single-dose and repeat-doses of subcutaneously administered (SC) dupilumab in pediatric patients with moderate-to-severe AD (for adolescents ≥12 to <18 years of age) or severe AD (for children ≥6 to <12 years of age) that was not adequately controlled by topical treatments.
# Two sequential ascending SC dose cohorts were planned: dose cohort 1 (2 mg/kg) and dose cohort 2 (4 mg/kg) up to a maximum dose of 300 mg. Within each dose cohort, approximately 36 to 40 patients were planned to be enrolled in 2 age subsets: subset A (adolescents ≥12 to <18 years of age) and subset B (children ≥6 to <12 years of age). Enrollment and study dosing started with cohort 1A (2 mg/kg, adolescent age subset) and proceeded in sequence to cohort 1B (2 mg/kg, children ≥6 to <12 years of age subset), cohort 2A (4 mg/kg, adolescent age subset), and cohort 2B (4 mg/kg, children ≥6 to <12 years of age subset); a safety review of data from the previous cohort(s) was performed before proceeding to the next cohort.
# The study consisted of a screening period (day −35 to day −1), a baseline visit, Part A (including a single-dose treatment followed by an 8-week semi-dense PK sampling period), and Part B (including a 4-week repeat-dose treatment period [4 weekly doses] followed by an 8-week follow-up period).
# Sterile dupilumab drug product 150 mg/mL was provided in an aqueous buffered vehicle, pH 5.0. It was supplied in a 5-mL vial containing 2.5 mL (150 mg/mL) with a withdrawable volume of 2.0 mL or 300 mg of dupilumab. Study drug was administered SC by the investigator or other qualified study personnel at the following dose and dosing schedules: • For dose cohort 1: 2 mg/kg at day 1 as a single dose in Part A, then weekly at day 1 to week 3 in Part B as repeat doses • For dose cohort 2: 4 mg/kg at day 1 as a single dose in Part A, then weekly at day 1 to week 3 in Part B as repeat doses
# The primary objective was characterizing the PK profiles of dupilumab in pediatric AD patients aged ≥6 to <18 years. The secondary endpoints were: • Incidence of TEAEs • Percent change from baseline in Eczema Area and Severity Index (EASI) • Percent change from baseline in SCORing Atopic Dermatitis (SCORAD) score • Percent change from baseline in Pruritus Numerical Rating Scale (NRS) • Percentage of patients with an IGA score of 0 or 1 • Change from baseline in % BSA affected by AD Study Variables and Procedures
# Safety and tolerability was assessed by vital signs, physical examinations, clinical laboratory tests, and clinical evaluations. Patients were asked to monitor all adverse events (AEs) experienced from the time of informed consent/assent until their last study visit. Serum samples were collected for assay of dupilumab levels, and PK parameters were calculated using the dupilumab concentration data. Serum samples were collected for assay of ADA, and exploratory analyses. Efficacy was assessed during the study at specified clinic visits using the Pruritus NRS, SCORAD, and EASI that measure the extent and severity of AD, and the IGA that rates the overall severity of AD.
# [3] = CSA-eligible subset, Dupilumab 300 mg Q2W
# [4] = CSA-eligible subset, Dupilumab 300 mg QW
# [5] = CSA-ineligible subset, Dupilumab 300 mg Q2W
# [6] = CSA-ineligible subset, Dupilumab 300 mg QW
substance,measurement,setting,value
"dupilumab: fully human anti-IL-4R antibody; heavy chain SEQ ID NO: 9, light chain SEQ ID NO: 10","Patients achieving EASI 75, n (%)","[1]; CSA-eligible subset, Dupilumab 300 mg Q2W (N = 353)",(49.9) %
same,"Patients achieving IGA 0-1, n (%)",[1]; [3],(38.8) %
same,"Patients achieving a ≥4-point improvement in peak pruritus NRS, n/N1 (%)",[1]; [3],(39.7) %
same,"Patients achieving EASI 75, n (%)","[1]; CSA-eligible subset, Dupilumab 300 mg QW (N = 366)",(54.1) %
same,"Patients achieving IGA 0-1, n (%)",[1]; [4],(39.1) %
same,"Patients achieving a ≥4-point improvement in peak pruritus NRS, n/N1 (%)",[1]; [4],(40.5) %
same,"Patients achieving EASI 75, n (%)","[1]; CSA-ineligible subset, Dupilumab 300 mg Q2W (N = 104)",(40.4) %
same,"Patients achieving IGA 0-1, n (%)",[1]; [5],(30.8) %
same,"Patients achieving a ≥4-point improvement in peak pruritus NRS, n/N1 (%)",[1]; [5],(33.7) %
same,"Patients achieving EASI 75, n (%)","[1]; CSA-ineligible subset, Dupilumab 300 mg QW (N = 96)",(35.4) %
same,"Patients achieving IGA 0-1, n (%)",[1]; [6],(28.1) %
same,"Patients achieving a ≥4-point improvement in peak pruritus NRS, n/N1 (%)",[1]; [6],(36.3) %
same,bacterial conjunctivitis rate,"[1]; CsA-eligible, dupilumab q2w",0.6%
same,conjunctivitis rate,"[1]; CsA-eligible, dupilumab q2w",5%
same,bacterial conjunctivitis rate,"[1]; CsA-eligible, dupilumab qw",1.1%
same,conjunctivitis rate,"[1]; CsA-eligible, dupilumab qw",3.3%
same,bacterial conjunctivitis rate,"[1]; CsA-ineligible, dupilumab q2w",3.8%
same,conjunctivitis rate,"[1]; CsA-ineligible, dupilumab q2w",1.9%
same,bacterial conjunctivitis rate,"[1]; CsA-ineligible, dupilumab qw",4.2%
same,conjunctivitis rate,"[1]; CsA-ineligible, dupilumab qw",4.2%
same,"Patients achieving EASI 75, n (%)","[1]; Subset A (inadequate response or intolerance to CsA), Dupilumab 300 mg Q2W (N = 94)",(38.3) %
same,"Patients achieving IGA 0-1, n (%)","[1]; Subset A, Dupilumab 300 mg Q2W",(29.8) %
same,"Patients achieving a ≥4-point improvement in peak pruritus NRS, n/N1 (%)","[1]; Subset A, Dupilumab 300 mg Q2W",(33.7) %
same,"Patients achieving EASI 75, n (%)","[1]; Subset A, Dupilumab 300 mg QW (N = 83)",(34.9) %
same,"Patients achieving IGA 0-1, n (%)","[1]; Subset A, Dupilumab 300 mg QW",(27.7) %
same,"Patients achieving a ≥4-point improvement in peak pruritus NRS, n/N1 (%)","[1]; Subset A, Dupilumab 300 mg QW",(34.1) %
same,"Patients achieving EASI 75, n (%)","[1]; Subset B (remaining study population), Dupilumab 300 mg Q2W (N = 363)",(50.1) %
same,"Patients achieving IGA 0-1, n (%)","[1]; Subset B, Dupilumab 300 mg Q2W",(38.8) %
same,"Patients achieving a ≥4-point improvement in peak pruritus NRS, n/N1 (%)","[1]; Subset B, Dupilumab 300 mg Q2W",(39.5) %
same,"Patients achieving EASI 75, n (%)","[1]; Subset B, Dupilumab 300 mg QW (N = 379)",(53.6) %
same,"Patients achieving IGA 0-1, n (%)","[1]; Subset B, Dupilumab 300 mg QW",(38.8) %
same,"Patients achieving a ≥4-point improvement in peak pruritus NRS, n/N1 (%)","[1]; Subset B, Dupilumab 300 mg QW",(40.9) %
same,patients who achieved IGA 0-1,[2]; adolescent 2 mg cohort,10%
same,peak pruritus NRS improved by,[2]; adolescent 2 mg cohort,30.8%
same,baseline EASI improved by,[2]; adolescent 2 mg cohort,66.4%
same,patients who achieved IGA 0-1,[2]; adolescent 4 mg cohort,35%
same,peak pruritus NRS improved by,[2]; adolescent 4 mg cohort,37.6%
same,baseline EASI improved by,[2]; adolescent 4 mg cohort,69.7%
same,reduction in EASI score from baseline,"[2]; adolescent patients, single dose 2 mg/kg",34%
same,reduction in EASI score from baseline,"[2]; adolescent patients, single dose 4 mg/kg",51%
same,patients who achieved IGA 0-1,[2]; children 2 mg/kg cohort,16.7%
same,peak pruritus NRS improved by,[2]; children 2 mg/kg cohort,41.6%
same,baseline EASI improved by,[2]; children 2 mg/kg cohort,76.2%
same,patients who achieved IGA 0-1,[2]; children 4 mg cohort,21.1%
same,peak pruritus NRS improved by,[2]; children 4 mg cohort,39.6%
same,baseline EASI improved by,[2]; children 4 mg cohort,63.4%
same,reduction in EASI score from baseline,"[2]; children, single dose 2 mg/kg",37%
same,reduction in EASI score from baseline,"[2]; children, single dose 4 mg/kg",33%
same,safety and tolerability,"[2]; single and repeated weekly doses of 2 mg/kg and 4 mg/kg, both pediatric age groups",No new safety signals; also recorded: generally safe and well tolerated

# From patent publication US10485844B2, “Methods for treating severe atopic dermatitis by administering an IL-4R inhibitor” (Regeneron Pharmaceuticals, Inc., priority 2016, dated 2019)
